In US11312712B2, “Azabenzimidazoles and their use as AMPA receptor modulators” (Janssen Pharmaceutica NV, priority 2015, dated 2022):

target: GluA1o-γ8 (GRIA1o-CACNG8 fusion construct) (Homo sapiens (Human), UniProt P42261+Q8WXS5); assay: Calcium flux assay (FLIPR), inhibition of TARP γ8 dependent AMPA receptor activity; assay type: cell-based; conditions: GluA1o-γ8 (GRIA1o-CACNG8 fusion) in HEK293 cells, calcium flux after 15 μM glutamate
Outline: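 Glutamate (15 μM) was added to a stable HEK293 line carrying the GluA1o–γ8 fusion, which had been preincubated with compound and calcium dye in HEPES buffer, pH 7.4. Normalized FLIPR fluorescence (no compound vs 10 μM CP465022) was fitted with four parameters; pIC50 is the midpoint's negative log.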

Sequence of GluA1o-γ8 (GRIA1o-CACNG8 fusion construct) (P42261 other isoform, or with tags, fused parts or gaps): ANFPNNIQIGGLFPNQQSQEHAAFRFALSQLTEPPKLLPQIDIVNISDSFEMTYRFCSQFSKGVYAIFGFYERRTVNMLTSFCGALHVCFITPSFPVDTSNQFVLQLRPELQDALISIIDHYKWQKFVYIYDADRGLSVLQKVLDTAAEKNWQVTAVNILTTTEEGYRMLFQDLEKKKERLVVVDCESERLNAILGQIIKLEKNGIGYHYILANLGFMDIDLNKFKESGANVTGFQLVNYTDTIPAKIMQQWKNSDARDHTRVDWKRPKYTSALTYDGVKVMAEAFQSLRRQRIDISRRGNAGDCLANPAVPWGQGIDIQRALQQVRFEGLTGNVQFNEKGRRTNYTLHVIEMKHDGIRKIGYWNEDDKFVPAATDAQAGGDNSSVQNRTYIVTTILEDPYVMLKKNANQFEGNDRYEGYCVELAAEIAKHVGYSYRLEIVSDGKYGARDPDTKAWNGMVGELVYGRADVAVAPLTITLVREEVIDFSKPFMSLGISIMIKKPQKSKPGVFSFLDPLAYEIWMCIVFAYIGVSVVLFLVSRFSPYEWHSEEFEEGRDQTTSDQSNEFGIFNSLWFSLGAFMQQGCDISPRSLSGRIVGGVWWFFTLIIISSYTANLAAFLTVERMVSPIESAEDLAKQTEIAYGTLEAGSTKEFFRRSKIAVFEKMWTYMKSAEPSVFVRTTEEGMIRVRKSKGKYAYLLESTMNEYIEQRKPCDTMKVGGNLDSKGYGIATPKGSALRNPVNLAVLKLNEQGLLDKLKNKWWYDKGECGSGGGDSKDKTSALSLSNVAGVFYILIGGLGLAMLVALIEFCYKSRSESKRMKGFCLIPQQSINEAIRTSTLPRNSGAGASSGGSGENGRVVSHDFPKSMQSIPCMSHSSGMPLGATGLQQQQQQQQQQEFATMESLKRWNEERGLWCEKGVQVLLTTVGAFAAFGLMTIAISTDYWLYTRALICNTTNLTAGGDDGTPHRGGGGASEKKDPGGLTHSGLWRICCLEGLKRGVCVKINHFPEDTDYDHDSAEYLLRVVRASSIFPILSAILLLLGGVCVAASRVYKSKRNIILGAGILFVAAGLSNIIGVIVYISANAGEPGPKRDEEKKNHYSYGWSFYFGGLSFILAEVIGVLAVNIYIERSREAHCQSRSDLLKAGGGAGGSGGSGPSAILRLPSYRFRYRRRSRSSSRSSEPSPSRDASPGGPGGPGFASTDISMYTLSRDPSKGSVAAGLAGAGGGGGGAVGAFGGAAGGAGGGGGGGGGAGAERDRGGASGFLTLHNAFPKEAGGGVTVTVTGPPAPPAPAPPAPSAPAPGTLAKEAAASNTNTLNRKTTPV

SMILES | IC50
COC(=O)c1cc(-n2c(C(F)(F)F)nc3ccc(C(F)(F)F)nc32)cc2cn[nH]c12 [Example 284, Methyl 5-[2,5-bis(trifluoromethyl)imidazo[4,5-b]pyridin-3-yl]-1H-indazole-7-carboxylate] | 126 nM
COC(=O)c1cc(-n2c(C(F)F)nc3ccc(C(F)(F)F)nc32)cc2cn[nH]c12 [Example 285, Methyl 5-[2-(difluoromethyl)-5-(trifluoromethyl)imidazo[4,5-b]pyridin-3-yl]-1H-indazole-7-carboxylate] | 251 nM
O=C1Cc2cc(-n3c(C(F)F)nc4ccc(C(F)(F)F)nc43)cc(F)c2N1 [Example 288, 5-[2-(Difluoromethyl)-5-(trifluoromethyl)imidazo[4,5-b]pyridin-3-yl]-7-fluoro-indolin-2-one] | 6.31 nM
FC(F)(F)c1ccc2nc(C(F)(F)F)n(-c3ccc4cn[nH]c4c3)c2n1 [Example 291, 3-(1H-Indazol-6-yl)-2,5-bis(trifluoromethyl)imidazo[4,5-b]pyridine] | 63.1 nM
O=C1Cc2cc(-n3c(C(F)(F)F)nc4ccc(C(F)(F)F)nc43)cnc2N1 [Example 292, 5-[2,5-Bis(trifluoromethyl)imidazo[4,5-b]pyridin-3-yl]-1,3-dihydropyrrolo[2,3-b]pyridin-2-one] | 7.94 nM
FC(F)(F)c1ccc2nc(C(F)(F)F)n(-c3cnc4[nH]ccc4c3)c2n1 [Example 293, 3-(1H-Pyrrolo[2,3-b]pyridin-5-yl)-2,5-bis(trifluoromethyl)imidazo[4,5-b]pyridine] | 39.8 nM
N#Cc1n[nH]c2ccc(-n3c(C(F)(F)F)nc4ccc(C(F)(F)F)nc43)cc12 [Example 295, 5-[2,5-Bis(trifluoromethyl)imidazo[4,5-b]pyridin-3-yl]-1H-indazole-3-carbonitrile] | 39.8 nM
Oc1n[nH]c2ccc(-n3c(C(F)F)nc4ccc(C(F)(F)F)nc43)cc12 [Example 296, 5-[2-(Difluoromethyl)-5-(trifluoromethyl)imidazo[4,5-b]pyridin-3-yl]-1H-indazol-3-ol] | 158 nM
O=C1Cc2ccc(-n3c(C4CC4)nc4ccc(C(F)(F)F)nc43)cc2N1 [Example 297, 6-[2-Cyclopropyl-5-(trifluoromethyl)imidazo[4,5-b]pyridin-3-yl]indolin-2-one] | 1000 nM
CC(C)c1nc2ccc(C(F)(F)F)nc2n1-c1ccc2[nH]nc(Br)c2c1 [Example 298, 3-(3-Bromo-1H-indazol-5-yl)-2-isopropyl-5-(trifluoromethyl)imidazo[4,5-b]pyridine] | 79.4 nM
CC(C)c1nc2ccc(C(F)(F)F)nc2n1-c1cnc2c(c1)CC(=O)N2 [Example 301, 5-[2-Isopropyl-5-(trifluoromethyl)imidazo[4,5-b]pyridin-3-yl]-1,3-dihydropyrrolo[2,3-b]pyridin-2-one] | 31.6 nM
CC(C)c1nc2ccc(C(F)(F)F)nc2n1-c1cnc2[nH]ncc2c1 [Example 302, 2-Isopropyl-3-(1H-pyrazolo[3,4-b]pyridin-5-yl)-5-(trifluoromethyl)imidazo[4,5-b]pyridine] | 39.8 nM
CC(C)c1nc2ccc(C(F)(F)F)nc2n1-c1cnc2[nH]ccc2c1 [Example 303, 2-Isopropyl-3-(1H-pyrrolo[2,3-b]pyridin-5-yl)-5-(trifluoromethyl)imidazo[4,5-b]pyridine] | 31.6 nM
C=CCc1cc(-n2c(C(F)(F)F)nc3ccc(C(F)(F)F)nc32)cc2cn[nH]c12 [Example 304, 3-(7-Allyl-1H-indazol-5-yl)-2,5-bis(trifluoromethyl)-3H-imidazo[4,5-b]pyridine] | 63.1 nM

These reach a lower IC50. Values come first.

IC50 | SMILES
0.0631 nM | Cc1cc(-n2c(C(F)(F)F)nc3ccc(C(F)(F)F)nc32)cc2sc(=O)[nH]c12 [Example 281, 6-[2,5-Bis(trifluoromethyl)imidazo[4,5-b]pyridin-3-yl]-4-methyl-3H-1,3-benzothiazol-2-one]
0.0316 nM | O=c1[nH]c2c(Cl)cc(-n3c(C(F)(F)F)nc4ccc(C(F)(F)F)nc43)cc2s1 [Example 282, 6-[2,5-Bis(trifluoromethyl)imidazo[4,5-b]pyridin-3-yl]-4-chloro-3H-1,3-benzothiazol-2-one]
2.51 nM | O=c1[nH]c2c(F)cc(-n3c(C(F)(F)F)nc4ccc(C(F)(F)F)nc43)cc2o1 [Example 283, 6-[2,5-Bis(trifluoromethyl)imidazo[4,5-b]pyridin-3-yl]-4-fluoro-3H-1,3-benzoxazol-2-one]
0.0501 nM | Cc1cc(-n2c(C(F)F)nc3ccc(C(F)(F)F)nc32)cc2cn[nH]c12 [Example 286, 2-(Difluoromethyl)-3-(7-methyl-1H-indazol-5-yl)-5-(trifluoromethyl)imidazo[4,5-b]pyridine]
0.158 nM | Cc1cc(-n2c(C(F)F)nc3ccc(C(F)(F)F)nc32)cc2c1NC(=O)C2 [Example 287, 5-[2-(Difluoromethyl)-5-(trifluoromethyl)imidazo[4,5-b]pyridin-3-yl]-7-methyl-indolin-2-one]
3.98 nM | Cc1cc(-n2c(C(F)(F)F)nc3ccc(C(F)(F)F)nc32)cc2[nH]ncc12 [Example 289, 3-(4-Methyl-1H-indazol-6-yl)-2,5-bis(trifluoromethyl)imidazo[4,5-b]pyridine]
0.2 nM | O=c1[nH]c2c(Br)cc(-n3c(C(F)(F)F)nc4ccc(C(F)(F)F)nc43)cc2o1 [Example 290, 6-[2,5-Bis(trifluoromethyl)imidazo[4,5-b]pyridin-3-yl]-4-bromo-3H-1,3-benzoxazol-2-one]
0.02 nM | Cc1cc(-n2c(C(F)(F)F)nc3ccc(C(F)(F)F)nc32)cc2cn[nH]c12 [Example 294, 3-(7-Methyl-1H-indazol-5-yl)-2,5-bis(trifluoromethyl)imidazo[4,5-b]pyridine]
0.2 nM | CC(C)c1nc2ccc(C(F)(F)F)nc2n1-c1cc(Cl)c2c(c1)CC(=O)N2 [Example 299, 7-Chloro-5-[2-isopropyl-5-(trifluoromethyl)imidazo[4,5-b]pyridin-3-yl]indolin-2-one]
2.51 nM | CC(C)c1nc2cc(F)cnc2n1-c1cc(Cl)c2[nH]ncc2c1 [Example 300, 3-(7-Chloro-1H-indazol-5-yl)-6-fluoro-2-isopropyl-imidazo[4,5-b]pyridine]
0.02 nM | C=C(C)c1cc(-n2c(C(F)(F)F)nc3ccc(C(F)(F)F)nc32)cc2cn[nH]c12 [Example 305, 3-(7-(Prop-1-en-2-yl)-1H-indazol-5-yl)-2,5-bis(trifluoromethyl)-3H-imidazo[4,5-b]pyridine]
2.51 nM | FC(F)(F)c1ccc2ncn(-c3cc(Cl)c4[nH]ncc4c3)c2n1 [Example 306, 3-(7-Chloro-1H-indazol-5-yl)-5-(trifluoromethyl)imidazo[4,5-b]pyridine]
0.00501 nM | FC(F)(F)c1ccc2nc(C3CC3)n(-c3cc(Cl)c4[nH]ncc4c3)c2n1 [Example 307, 3-(7-Chloro-1H-indazol-5-yl)-2-cyclopropyl-5-(trifluoromethyl)imidazo[4,5-b]pyridine]
0.00501 nM | FC(F)(F)c1ccc2nc(C3CCC3)n(-c3cc(Cl)c4[nH]ncc4c3)c2n1 [Example 308, 3-(7-Chloro-1H-indazol-5-yl)-2-cyclobutyl-5-(trifluoromethyl)imidazo[4,5-b]pyridine]
0.631 nM | Cc1cc(-n2c(C)nc3ccc(C(F)(F)F)nc32)cc2c1NC(=O)C2 [Example 309, 7-Methyl-5-[2-methyl-5-(trifluoromethyl)imidazo[4,5-b]pyridin-3-yl]indolin-2-one]
